Legend:
crabgrass = assay: Test B pre/postemergence crabgrass; assay type: in vivo, Digitaria sanguinalis
How it was run: (§1)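 Herbicidal effect was estimated by eye on a ten-point control scale after plants spent twelve to sixteen days in a greenhouse following soil or foliar treatment. Foliar sprays targeted plants at one to four leaves; all doses were formulated in a non-phytotoxic solvent with surfactant.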

wheat = assay: Test B pre/postemergence wheat; assay type: in vivo, Triticum aestivum
How it was run: as §1

wild oat = assay: Test B pre/postemergence wild oat; assay type: in vivo, Avena fatua
How it was run: as §1

rice = assay: Test B flood test rice; assay type: in vivo, Oryza sativa; conditions: for Plant response rating, Rice (0 to 10 scale, 0 is no effect, 10 is complete control) / Rice plant response rating (0 to 10 scale, 0 is no effect, 10 is complete control): visual evaluation after twelve to sixteen days; for Rice plant response rating (0 to 10 scale, 0 is no effect, 10 is complete control): under heading Pre-emergence
How it was run: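 Plants were grown to the 2-leaf stage before treatment with test chemical, then held in a greenhouse for twelve to sixteen days. Injury was visually rated against untreated controls on a 0–10 scale, where 0 is no effect and 10 is complete control.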

[1] = Postemergence, Rate 125 g/ha, scale of 0 to 10 where 0 is no effect and 10 is complete control
[2] = Preemergence, Rate 62 g/ha, scale 0 to 10 (0 no effect, 10 complete control)
[3] = Preemergence, Rate 250 g/ha, scale of 0 to 10 where 0 is no effect and 10 is complete control
[4] = Preemergence, Rate 500 g/ha, scale 0 to 10 (0 no effect, 10 complete control)
[5] = Rate 62 g/ha, Postemergence, scale of 0 to 10 where 0 is no effect and 10 is complete control
[6] = Rate 500 g/ha, Postemergence, scale 0 to 10, 0 no effect, 10 complete control
[7] = Preemergence, Rate 125 g/ha, 0 is no effect, 10 is complete control
[8] = Rate 250 g/ha, Postemergence, scale 0 to 10, 0 is no effect, 10 is complete control
[9] = Postemergence, Rate 62 g/ha, scale 0 to 10, 0 is no effect, 10 is complete control
[10] = Postemergence, Rate 250 g/ha, scale of 0 to 10, 0 is no effect, 10 is complete control
[11] = Postemergence, Rate 500 g/ha, scale of 0 to 10 where 0 is no effect and 10 is complete control
[12] = Preemergence, Rate 125 g/ha, scale of 0 to 10 where 0 is no effect and 10 is complete control
[13] = Preemergence, Rate 250 g/ha, scale 0 to 10 (0 no effect, 10 complete control)
[14] = Preemergence, Rate 500 g/ha, scale of 0 to 10 where 0 is no effect and 10 is complete control
[15] = Rate 62 g/ha, flood test species, Pre-emergence
[16] = Rate 125 g/ha, flood test species
[17] = Rate 250 g/ha, Pre-emergence (flood test species), scale 0 to 10, 0 is no effect, 10 is complete control
[18] = Rate 500 g/ha, Pre-emergence section of Table B, 0 to 10 scale (0 no effect, 10 complete control)
[19] = Postemergence, Rate 125 g/ha, scale 0 to 10, 0 is no effect, 10 is complete control
[20] = Preemergence, Rate 62 g/ha, scale of 0 to 10 where 0 is no effect and 10 is complete control
[21] = Rate 62 g/ha, Postemergence, scale 0 to 10 (0 no effect, 10 complete control)

Compound: Cc1nn(C)c(Cl)c1-n1c(=O)on(C(=O)N(c2ccccc2)C(C)C)c1=O [Compound 121]
- Crabgrass plant response rating (crabgrass; [1]): 6
- Crabgrass plant response rating (crabgrass; Postemergence, Rate 250 g/ha, scale 0 to 10, 0 no effect, 10 complete control): 9
- Crabgrass plant response rating (crabgrass; [2]): 2
- Plant response rating, Crabgrass (crabgrass; Preemergence, Rate 125 g/ha, scale 0 to 10 (0 no effect, 10 complete control)): 7
- Plant response rating, Crabgrass (crabgrass; [3]): 8
- Crabgrass plant response rating (crabgrass; [4]): 9
- Crabgrass plant response rating (crabgrass; [5]): 4
- Crabgrass plant response rating (crabgrass; [6]): 9
- Wheat plant response rating (wheat; [1]): 0
- Wheat plant response rating (wheat; [2]): 0
- Wheat plant response rating (0 to 10 scale) (wheat; [7]): 0
- Plant response rating, Wheat (wheat; [3]): 0
- Wheat plant response rating (wheat; [4]): 3
- Wheat plant response rating (wheat; [5]): 0
- Plant response rating, Wheat (wheat; [8]): 0
- Wheat plant response rating (wheat; [6]): 0
- Wild oats plant response rating (wild oat; [1]): 0
- Wild oats plant response rating (wild oat; [2]): 0
- Wild oats plant response rating (0 to 10 scale) (wild oat; [7]): 0
- Plant response rating, Wild oats (wild oat; [3]): 5
- Wild oats plant response rating (wild oat; [4]): 6
- Wild oats plant response rating (wild oat; [5]): 0
- Plant response rating, Wild oats (wild oat; [8]): 0
- Wild oats plant response rating (wild oat; [6]): 0
- Rice plant response rating (rice; Postemergence (flood test species), Rate 125 g/ha, scale of 0 to 10 where 0 is no effect and 10 is complete control): 0
- Rice plant response rating (rice; Rate 62 g/ha, Postemergence section, flood test species, scale of 0 to 10 where 0 is no effect and 10 is complete control): 0
- Plant response rating, Rice (rice; Rate 250 g/ha, Postemergence (flood test), scale 0 to 10, 0 is no effect, 10 is complete control): 0
- Rice plant response rating (rice; Rate 250 g/ha, headed Pre-emergence (flood test species), scale 0 to 10 (0 no effect, 10 complete control)): 0
- Plant response rating, Rice (rice; Rate 500 g/ha, headed Pre-emergence (flood test species), scale 0 to 10 (0 no effect, 10 complete control)): 0
- Rice plant response rating (rice; Rate 500 g/ha, listed under Postemergence (flood test species), scale 0 to 10, 0 no effect, 10 complete control): 0
- Rice plant response rating (rice; Rate 1000 g/ha, Pre-emergence (as headed), scale 0 to 10): 3
- Rice plant response rating (rice; Rate 2000 g/ha, Pre-emergence (as headed), scale 0 to 10): 5

Compound: COCCn1c(=O)on(C(=O)N(c2ccc(F)cc2)C(C)C)c1=O [Compound 627]
- Plant response rating, Crabgrass (crabgrass; [9]): 8
- Plant response rating, Crabgrass (crabgrass; [1]): 8
- Crabgrass plant response rating (crabgrass; [10]): 9
- Plant response rating, Crabgrass (crabgrass; [11]): 9
- Crabgrass plant response rating (crabgrass; [2]): 7
- Crabgrass plant response rating (crabgrass; [12]): 8
- Plant response rating, Crabgrass (crabgrass; [13]): 9
- Plant response rating, Crabgrass (crabgrass; [14]): 9
- Plant response rating, Wheat (wheat; [9]): 2
- Plant response rating, Wheat (wheat; [1]): 3
- Wheat plant response rating (wheat; [10]): 6
- Wheat plant response rating (wheat; [2]): 0
- Wheat plant response rating (wheat; [12]): 0
- Plant response rating, Wheat (wheat; [13]): 7
- Plant response rating, Wheat (wheat; [14]): 5
- Plant response rating, Wild oats (wild oat; [9]): 0
- Plant response rating, Wild oats (wild oat; [1]): 2
- Wild oats plant response rating (wild oat; [10]): 6
- Wild oats plant response rating (wild oat; [2]): 0
- Wild oats plant response rating (wild oat; [12]): 3
- Plant response rating, Wild oats (wild oat; [13]): 5
- Plant response rating, Wild oats (wild oat; [14]): 5
- Plant response rating, Rice (0 to 10 scale, 0 is no effect, 10 is complete control) (rice; [15]): 0
- Rice plant response rating (0 to 10 scale, 0 is no effect, 10 is complete control) (rice; [16]): 0
- Rice plant response rating (rice; [17]): 0
- Rice plant response rating (rice; [18]): 0

Compound: CC(C)N(C(=O)n1oc(=O)n(-c2ccc3ccccc3c2)c1=O)c1ccc(Cl)cc1 [Compound 333]
- Plant response rating, Crabgrass (crabgrass; [19]): 0
- Crabgrass plant response rating (crabgrass; [20]): 0
- Crabgrass plant response rating (0 to 10 scale) (crabgrass; Preemergence, Rate 125 g/ha): 0
- Crabgrass plant response rating (crabgrass; [3]): 0
- Crabgrass plant response rating (crabgrass; [14]): 3
- Crabgrass plant response rating (crabgrass; [21]): 0
- Plant response rating, Crabgrass (crabgrass; [6]): 0
- Plant response rating, Wheat (wheat; [19]): 0
- Wheat plant response rating (wheat; [20]): 0
- Wheat plant response rating (0 to 10 scale) (wheat; Preemergence, Rate 125 g/ha): 0
- Wheat plant response rating (wheat; [3]): 0
- Wheat plant response rating (wheat; [14]): 0
- Wheat plant response rating (wheat; [21]): 0
- Plant response rating, Wheat (wheat; [6]): 0
- Plant response rating, Wild oats (wild oat; [19]): 0
- Wild oats plant response rating (wild oat; [20]): 0
- Wild oats plant response rating (0 to 10 scale) (wild oat; Preemergence, Rate 125 g/ha): 0
- Wild oats plant response rating (wild oat; [3]): 0
- Wild oats plant response rating (wild oat; [14]): 0
- Wild oats plant response rating (wild oat; [21]): 0
- Plant response rating, Wild oats (wild oat; [6]): 0
- Rice plant response rating (rice; Pre-emergence, Rate 1000 g/ha, scale 0 to 10 (0 no effect, 10 complete control)): 0
- Rice plant response rating (rice; Rate 125 g/ha, Pre-emergence, flood test species, scale 0 to 10 where 0 is no effect and 10 is complete control): 0
- Rice plant response rating (rice; Rate 250 g/ha, Pre-emergence, flood-test species, scale 0 to 10, 0 is no effect, 10 is complete control): 0
- Rice plant response rating (rice; Rate 500 g/ha, Pre-emergence, flood test species, scale 0 to 10 (0 no effect, 10 complete control)): 0

Compound: CC(C)N(C(=O)n1oc(=O)n(CSC#N)c1=O)c1ccc(F)cc1 [Compound 618]
- Plant response rating, Crabgrass (crabgrass; [9]): 0
- Plant response rating, Crabgrass (crabgrass; [1]): 0
- Crabgrass plant response rating (crabgrass; [10]): 0
- Plant response rating, Crabgrass (crabgrass; [11]): 0
- Crabgrass plant response rating (crabgrass; [2]): 0
- Crabgrass plant response rating (crabgrass; [12]): 0
- Plant response rating, Crabgrass (crabgrass; [13]): 0
- Plant response rating, Crabgrass (crabgrass; [14]): 2
- Plant response rating, Wheat (wheat; [9]): 0
- Plant response rating, Wheat (wheat; [1]): 0
- Wheat plant response rating (wheat; [10]): 0
- Wheat plant response rating (wheat; [2]): 0
- Wheat plant response rating (wheat; [12]): 0
- Plant response rating, Wheat (wheat; [13]): 0
- Plant response rating, Wheat (wheat; [14]): 0
- Plant response rating, Wild oats (wild oat; [9]): 0
- Plant response rating, Wild oats (wild oat; [1]): 0
- Wild oats plant response rating (wild oat; [10]): 0
- Wild oats plant response rating (wild oat; [2]): 0
- Wild oats plant response rating (wild oat; [12]): 0
- Plant response rating, Wild oats (wild oat; [13]): 0
- Plant response rating, Wild oats (wild oat; [14]): 0
- Plant response rating, Rice (0 to 10 scale, 0 is no effect, 10 is complete control) (rice; [15]): 0
- Rice plant response rating (0 to 10 scale, 0 is no effect, 10 is complete control) (rice; [16]): 0
- Rice plant response rating (rice; [17]): 0
- Rice plant response rating (rice; [18]): 0

Source: patent US6737383B1, “Herbicidal oxadiazolidines” (priority 1999, dated 2004)
